This note sets out measurements from patent publication US20250340581A1, “PAEONIFLORIN MONOHYDRATE CRYSTAL FORM A, PREPARATION METHOD THEREFOR, AND USE THEREOF” (SHANGHAI INSTITUTE OF MATERIA MEDICA.CHINESE ACADEMY OF …, priority 2023, published 2025).

Some results are limits rather than exact numbers.

Type in all cases: physicochemical
The nature of series [1]: Hygroscopicity test by dynamic moisture sorption (DVS). The note with it: for adsorbed moisture: 80% RH, 25° C., DVS. The procedure: DVS analysis: all dynamic moisture sorption analysis […] of this experiment were determined by DVS advantage model sorption instrument, British SMS company, relative humidity range: 0-95%, temperature: 25° C. Commercially available paeoniflorin (Aladdin Company, batch number K2011169, purity ≥98%) was used as the amorphous powder, and its X-ray powder diffraction comparison diagram with the crystal form A of the present invention is shown in FIG. 6, and the hygroscopicity analysis comparison diagram of paeoniflorin and the crystal form A of the present invention is shown in FIG. 7. […] The hygroscopicity of crystal form B was analyzed using DVS advantage adsorption instrument of SMS company in the UK, the amorphous form adsorbed 11.1% of water at 80% RH, showing hygroscopicity; Paeoniflorin crystal form B of the present invention adsorbed 2.22% of water at 80% RH, but its hygroscopicity was obviously different from that of crystal form A.

The nature of series [2]: Thermal stability by TG and DSC. As for the experimental part:
DSC analysis: the method adopts a DSC 8500 model differential scanning calorimeter of PerkinElmer company, US. for detection, the atmosphere is nitrogen, and the heating speed is 10° C./min.
TG analysis: the method adopts a thermogravimetric analyzer Netzsch TG 209F3 model of German […] company, temperature range: 30-400° C., scan rate: 10° C./min, purge gas: 25 mL/min.

A short description of another series: Solubility in water. As for the experimental part: The crystal form A has good water solubility, the solubility in water is more than 20 mg/mL, and the crystal form A is easy to dissolve.
A short description of series [3]: Accelerated stability in a stability box (40° C./75% RH). The note with it: 15 days acceleration.

For `CC12CC3(O)OC(O1)C1(COC(=O)c4ccccc4)C3CC21OC1OC(CO)C(O)C(O)C1O` (stereo not shown) [amorphous form, reference compound], the adsorbed moisture in series [1] stood at 11.1%.
Regarding `CC12CC3(O)OC(O1)C1(COC(=O)c4ccccc4)C3CC21OC1OC(CO)C(O)C(O)C1O` (stereo not shown) [Paeoniflorin crystal form B], the adsorbed moisture in series [1] turned out to be 2.22%.
For orientation: solubility means the dissolved amount per volume that the medium holds. A higher solubility goes with a readily soluble substance. Consider `CC12CC3(O)OC(O1)C1(COC(=O)c4ccccc4)C3CC21OC1OC(CO)C(O)C(O)C1O` (stereo not shown) [crystal form A], for which the “phase transition and weight loss temperatures” value in series [2] is “above 100 °C”. The molecule further had an adsorbed moisture in series [1] (listed as paeoniflorin monohydrate crystal form A) of 0.3%. The “hygroscopicity (qualitative)” value in series [1] (no wet agglomeration, powder has good fluidity) is given as “small hygroscopicity”. The solubility in the series “Solubility in water” is greater than 20 mg/mL. In addition, the “physical stability (conversion to amorphous or other forms)” value in series [3] was “did not convert to amorphous or other forms”.
